Test system: TATA box-containing oligonucleotide (DNA, duplex) GAAGGGGGGCTATAAAAGGGGGTG/CACCCCCTTTTATAGCCCCCCTTC
Assay: EMSA, inhibition of TBP binding to TATA box probe
Conditions: LightShift chemiluminescent EMSA; probe preincubated with BBR; TBP from PC12 nuclear extract displaced; apparent

COc1ccc2cc3[n+](cc2c1OC)CCc1cc2c(cc1-3)OCO2
IC50: 0.3985 µmol

Source: publication PMC3161736 (2011)
